Experiments:
RET wt = RET wt (Homo sapiens (Human), UniProt P07949); assay: HTRF kinase activity test, RET wt; type: biochemical; details: for IC50: HTRF KinEASE-TK; for inhibitory activity on RET wt compared with cabozantinib: comparison in words
TT Cell = assay: TT cell activity test (CelltiterGlo, 72 h); type: cell-based, human; details: for IC50: Homo sapiens, TT cell line, 72 h, CTG; for inhibitory activity on TT cells compared with cabozantinib: comparison in words
Method: 2.3 Data Processing % Inhibition (inhibition rate)=100*(HC−test compound well reading)/(HC−LC) • High control (HC, reading control without inhibition): 0.5% DMSO • Low control (LC, control with compound inhibition): 1 μM CEP-32496
The IC50 values were calculated using GraphPad Prism 6 software. Y=Bottom+(Top−Bottom)/(1+10^((Log IC50−X)*HillSlope)); • X: log of cpd concentration; • Y: % inhibition; • Top and Bottom: plateaus in same units as Y; • Log IC50: same log units as X; and • HillSlope: slope factor The Cell Results are Shown in Table 5: […]

RET V804M = RET V804M (Homo sapiens (Human), UniProt P07949, V804M); assay: HTRF kinase activity test, RET V804M; type: biochemical; details: for IC50: HTRF KinEASE-TK; for inhibitory activity on RET V804M compared with cabozantinib: comparison in words
Chain of RET V804M (P07949 29-1114 V804M): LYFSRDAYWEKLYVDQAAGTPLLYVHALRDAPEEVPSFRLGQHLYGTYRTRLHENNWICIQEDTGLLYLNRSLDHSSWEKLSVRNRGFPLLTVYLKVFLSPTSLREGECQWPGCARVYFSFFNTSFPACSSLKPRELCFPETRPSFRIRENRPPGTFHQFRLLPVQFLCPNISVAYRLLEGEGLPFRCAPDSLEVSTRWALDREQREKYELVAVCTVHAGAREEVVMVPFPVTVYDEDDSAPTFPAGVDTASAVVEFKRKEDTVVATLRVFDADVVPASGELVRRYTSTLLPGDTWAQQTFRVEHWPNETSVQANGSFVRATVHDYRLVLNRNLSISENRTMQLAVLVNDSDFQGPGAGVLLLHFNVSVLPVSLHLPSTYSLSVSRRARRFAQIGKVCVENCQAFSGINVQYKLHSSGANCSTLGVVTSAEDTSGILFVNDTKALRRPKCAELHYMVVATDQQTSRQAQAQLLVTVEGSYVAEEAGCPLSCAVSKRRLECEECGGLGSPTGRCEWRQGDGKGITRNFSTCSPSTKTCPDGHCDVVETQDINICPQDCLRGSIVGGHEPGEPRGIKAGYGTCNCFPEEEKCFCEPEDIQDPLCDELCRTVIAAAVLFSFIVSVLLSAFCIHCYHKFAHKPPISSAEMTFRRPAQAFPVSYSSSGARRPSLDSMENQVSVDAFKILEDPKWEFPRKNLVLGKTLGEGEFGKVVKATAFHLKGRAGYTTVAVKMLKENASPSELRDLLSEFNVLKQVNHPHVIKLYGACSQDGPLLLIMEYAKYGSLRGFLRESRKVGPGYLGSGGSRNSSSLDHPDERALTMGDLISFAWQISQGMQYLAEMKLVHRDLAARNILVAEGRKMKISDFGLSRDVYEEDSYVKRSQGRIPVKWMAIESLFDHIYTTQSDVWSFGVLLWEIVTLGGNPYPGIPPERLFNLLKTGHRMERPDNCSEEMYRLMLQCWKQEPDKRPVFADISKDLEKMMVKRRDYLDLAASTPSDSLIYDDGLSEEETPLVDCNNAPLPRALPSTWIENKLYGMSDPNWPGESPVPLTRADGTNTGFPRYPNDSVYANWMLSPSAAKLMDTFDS

RET G810R = RET G810R (Homo sapiens (Human), UniProt P07949, G810R); assay: HTRF kinase activity test, RET G810R; type: biochemical; details: for IC50: HTRF KinEASE-TK; for inhibitory activity on RET G810R compared with cabozantinib and selpercatinib (LOXO-292): comparison in words
Chain of RET G810R (P07949 29-1114 G810R): as the sequence (P07949 29-1114 V804M) above, with M776V, G782R counted along it

Chain of RET wt (P07949 29-1114): as the sequence (P07949 29-1114 V804M) above, with M776V counted along it

| Structure (SMILES) | IC50 (RET wt) [nM] | inhibitory activity on RET wt compared with cabozantinib (RET wt) | IC50 (TT Cell) [nM] | IC50 (RET V804M) [nM] | inhibitory activity on RET V804M compared with cabozantinib (RET V804M) | inhibitory activity on TT cells compared with cabozantinib (TT Cell) | IC50 (RET G810R) [nM] | inhibitory activity on RET G810R compared with cabozantinib and selpercatinib (LOXO-292) (RET G810R) |
| --- | --- | --- | --- | --- | --- | --- | --- | --- |
| COCCOc1cc(-c2ccc(N3CC4CC(C3)N4Cc3ccc(OC)nc3)nc2)c2c3c(N)n[nH]c3nn2c1 [Compound 1, 6-(2-methoxyethoxy)-4-(6-(6-((6-methoxypyridin-3-yl)methyl)-3,6-diazabicyclo[3.3.1]heptan-3-yl)pyridin-3-yl)-1H-pyrazolo[3′,4′:3,4]pyrazolo[1,5-a]pyridin-3-amine] | 4.1 | significantly better than that of cabozantinib | 319 | 2.9 | significantly better than that of cabozantinib | – | – | – |
| COCCOc1cc(-c2ccc(N3CC4CC(C3)N4Cc3ccc(OC)nc3)nc2)c2c3cn[nH]c3nn2c1 [Compound 7, 6-(2-methoxyethoxy)-4-(6-(6-((6-methoxypyridin-3-yl)methyl)-3,6-diazabicyclo[3.3.1]heptan-3-yl)pyridin-3-yl)-1H-pyrazolo[3′,4′:3,4]pyrazolo[1,5-a]pyridine] | 0.1 | significantly better than that of cabozantinib | 2.5 | 0.1 | significantly better than that of cabozantinib | significantly better than that of cabozantinib | 2.7 | significantly better than that of cabozantinib and selpercatinib (LOXO-292) |
| COc1ccc(CN2C3CC2CN(c2ccc(-c4cc(OCCCF)cn5nc6[nH]ncc6c45)cn2)C3)cn1 [Compound 12, 6-(3-fluoropropoxy)-4-(6-(6-((6-methoxypyridin-3-yl)methyl)-3,6-diazabicyclo[3.3.1]heptan-3-yl)pyridin-3-yl)-1H-pyrazolo[3′,4′:3,4]pyrazolo[1,5-a]pyridine] | 0.1 | significantly better than that of cabozantinib | 1.5 | 0.1 | significantly better than that of cabozantinib | significantly better than that of cabozantinib | 3.9 | significantly better than that of cabozantinib and selpercatinib (LOXO-292) |
| COc1ccc(CN2C3CC2CN(c2cnc(-c4cc(OCCF)cn5nc6[nH]ncc6c45)cn2)C3)cn1 [Compound 16, 6-(2-fluoroethoxy)-4-(5-(6-((6-methoxypyridin-3-yl)methyl)-3,6-diazabicyclo[3.3.1]heptan-3-yl)pyrazin-2-yl)-1H-pyrazolo[3′,4′:3,4]pyrazolo[1,5-a]pyridine] | – | – | 12.8 | 0.1 | significantly better than that of cabozantinib | significantly better than that of cabozantinib | 2.9 | significantly better than that of cabozantinib and selpercatinib (LOXO-292) |
| COc1ccc(C(=O)N2C3CC2CN(c2ccc(-c4cc(OCCF)cn5nc6[nH]ncc6c45)cn2)C3)cn1 [Compound 23, (3-(5-(6-(2-fluoroethoxy)-1H-pyrazolo[3′,4′:3,4]pyrazolo[1,5-a]pyridin-4-yl)pyridin-2-yl)-3,6-diazabicyclo[3.3.1]heptan-6-yl)(6-methoxypyridin-3-yl)methanone] | – | – | 7.9 | 0.1 | significantly better than that of cabozantinib | significantly better than that of cabozantinib | – | – |
| COc1cc(-c2cnc(N3CC4CC(C3)N4Cc3ccc(OC)nc3)cn2)c2c3cn[nH]c3nn2c1 [Compound 24, 6-methoxy-4-(5-(6-((6-methoxypyridin-3-yl)methyl)-3,6-diazabicyclo[3.3.1]heptan-3-yl)pyrazin-2-yl)-1H-pyrazolo[3′,4′:3,4]pyrazolo[1,5-a]pyridine] | – | – | 22.4 | – | – | significantly better than that of cabozantinib | 2.3 | significantly better than that of cabozantinib and selpercatinib (LOXO-292) |
| COc1ccc(CN2C3CC2CN(c2cnc(-c4cc(OCC(F)F)cn5nc6[nH]ncc6c45)cn2)C3)cn1 [Compound 25, 6-(2,2-difluoroethoxy)-4-(5-(6-((6-methoxypyridin-3-yl)methyl)-3,6-diazabicyclo[3.3.1]heptan-3-yl)pyrazin-2-yl)-1H-pyrazolo[3′,4′:3,4]pyrazolo[1,5-a]pyridine] | – | – | 23.4 | – | – | significantly better than that of cabozantinib | 4.3 | significantly better than that of cabozantinib and selpercatinib (LOXO-292) |
| COc1ccc(CN2C3CC2CN(c2ccc(-c4cc(OCC#N)cn5nc6[nH]ncc6c45)cn2)C3)cn1 [Compound 26, 2-((4-(6-(6-((6-methoxypyridin-3-yl)methyl)-3,6-diazabicyclo[3.3.1]heptan-3-yl)pyridin-3-yl)-1H-pyrazolo[3′,4′:3,4]pyrazolo[1,5-a]pyridin-6-yl)oxy)acetonitrile] | – | – | 22.7 | – | – | significantly better than that of cabozantinib | 2.1 | significantly better than that of cabozantinib and selpercatinib (LOXO-292) |
| COc1ccc(CN2C3CC2CN(c2ccc(-c4cc(OCCOC(F)F)cn5nc6[nH]ncc6c45)cn2)C3)cn1 [Compound 27, 6-(2-(difluoromethoxy)ethoxy)-4-(6-(6-((6-methoxypyridin-3-yl)methyl)-3,6-diazabicyclo[3.3.1]heptan-3-yl)pyridin-3-yl)-1H-pyrazolo[3′,4′:3,4]pyrazolo[1,5-a]pyridine] | 0.1 | significantly better than that of cabozantinib | 27.9 | 0.1 | significantly better than that of cabozantinib | significantly better than that of cabozantinib | 4.8 | significantly better than that of cabozantinib and selpercatinib (LOXO-292) |
| COc1ccc(CN2C3CC2CN(c2ccc(-c4cc(OCC(F)(F)F)cn5nc6[nH]ncc6c45)cn2)C3)cn1 [Compound 30, 4-(6-(6-((6-methoxypyridin-3-yl)methyl)-3,6-diazabicyclo[3.3.1]heptan-3-yl)pyridin-3-yl)-6-(2,2,2-trifluoroethoxy)-1H-pyrazolo[3′,4′:3,4]pyrazolo[1,5-a]pyridine] | – | – | 48.6 | – | – | significantly better than that of cabozantinib | 5.9 | significantly better than that of cabozantinib and selpercatinib (LOXO-292) |
| COc1cc(-c2ccc(N3CC4CC(C3)N4Cc3ccc(OC)nc3)nc2)c2c3cn[nH]c3nn2c1 [Compound 36, 6-methoxy-4-(6-(6-((6-methoxypyridin-3-yl)methyl)-3,6-diazabicyclo[3.3.1]heptan-3-yl)pyridin-3-yl)-1H-pyrazolo[3′,4′:3,4]pyrazolo[1,5-a]pyridine] | 0.2 | significantly better than that of cabozantinib | 10.7 | 0.1 | significantly better than that of cabozantinib | significantly better than that of cabozantinib | 1.7 | significantly better than that of cabozantinib and selpercatinib (LOXO-292) |
| CCCOc1cc(-c2ccc(N3CC4CC(C3)N4Cc3ccc(OC)nc3)nc2)c2c3cn[nH]c3nn2c1 [Compound 38, 4-(6-(6-((6-methoxypyridin-3-yl)methyl)-3,6-diazabicyclo[3.3.1]heptan-3-yl)pyridin-3-yl)-6-propoxy-1H-pyrazolo[3′,4′:3,4]pyrazolo[1,5-a]pyridine] | 0.2 | significantly better than that of cabozantinib | 10.6 | 0.1 | significantly better than that of cabozantinib | significantly better than that of cabozantinib | 2.9 | significantly better than that of cabozantinib and selpercatinib (LOXO-292) |
| COc1ccc(CN2C3CC2CN(c2ccc(-c4cc(OCC(C)C)cn5nc6[nH]ncc6c45)cn2)C3)cn1 [Compound 39, 6-isobutoxy-4-(6-(6-((6-methoxypyridin-3-yl)methyl)-3,6-diazabicyclo[3.3.1]heptan-3-yl)pyridin-3-yl)-1H-pyrazolo[3′,4′:3,4]pyrazolo[1,5-a]pyridine] | 0.4 | significantly better than that of cabozantinib | 12.3 | 0.3 | significantly better than that of cabozantinib | significantly better than that of cabozantinib | 30.5 | significantly better than that of cabozantinib and selpercatinib (LOXO-292) |
